Assay results: patent publication US11559537B2, “Combination therapies using caspase-1 dependent anticancer agents and PGE2 antagonists” (Trustees of Tufts College, priority 2017, dated 2023)
“And” between values parts separate entries of the source, which are not always exact repeats. Equal entries are not always repeated.

What was measured:
recombinant human PREP = recombinant human PREP (Homo sapiens (Human), UniProt P48147); test: In vitro inhibition assay, prolyl oligopeptidase; type: biochemical; conditions: Z-Gly-Pro-AMC substrate
recombinant human DPPII = recombinant human DPPII (Homo sapiens (Human), UniProt Q9UHL4); test: In vitro inhibition assay, dipeptidyl peptidase II; type: biochemical; conditions: Lys-Pro-AMC substrate, read-out: DPP2
recombinant human DPPIV = recombinant human DPPIV (Homo sapiens (Human), UniProt P27487); test: In vitro inhibition assay, dipeptidyl peptidase IV; type: biochemical; conditions: Gly-Pro-AMC substrate, read-out: DPP4
[1] = test system: MB49 murine urothelial carcinoma; test: MB49 efficacy studies; type: in vivo, mouse
recombinant human FAP = recombinant human FAP (Homo sapiens (Human), UniProt Q12884); test: In vitro inhibition assay, fibroblast activation protein; type: biochemical; conditions: Z-Gly-Pro-AMC substrate
[2] = cited from earlier work
recombinant human DPP8 = recombinant human DPP8 (Homo sapiens (Human), UniProt Q6V1X1); test: In vitro inhibition assay, dipeptidyl peptidase 8; type: biochemical; conditions: recombinant human DPP8, Gly-Pro-AMC substrate
recombinant human DPP9 = recombinant human DPP9 (Homo sapiens (Human), UniProt Q86TI2); test: In vitro inhibition assay, dipeptidyl peptidase 9; type: biochemical; conditions: recombinant human DPP9, Gly-Pro-AMC substrate
Chain of recombinant human DPP9 (Q86TI2 whole entry): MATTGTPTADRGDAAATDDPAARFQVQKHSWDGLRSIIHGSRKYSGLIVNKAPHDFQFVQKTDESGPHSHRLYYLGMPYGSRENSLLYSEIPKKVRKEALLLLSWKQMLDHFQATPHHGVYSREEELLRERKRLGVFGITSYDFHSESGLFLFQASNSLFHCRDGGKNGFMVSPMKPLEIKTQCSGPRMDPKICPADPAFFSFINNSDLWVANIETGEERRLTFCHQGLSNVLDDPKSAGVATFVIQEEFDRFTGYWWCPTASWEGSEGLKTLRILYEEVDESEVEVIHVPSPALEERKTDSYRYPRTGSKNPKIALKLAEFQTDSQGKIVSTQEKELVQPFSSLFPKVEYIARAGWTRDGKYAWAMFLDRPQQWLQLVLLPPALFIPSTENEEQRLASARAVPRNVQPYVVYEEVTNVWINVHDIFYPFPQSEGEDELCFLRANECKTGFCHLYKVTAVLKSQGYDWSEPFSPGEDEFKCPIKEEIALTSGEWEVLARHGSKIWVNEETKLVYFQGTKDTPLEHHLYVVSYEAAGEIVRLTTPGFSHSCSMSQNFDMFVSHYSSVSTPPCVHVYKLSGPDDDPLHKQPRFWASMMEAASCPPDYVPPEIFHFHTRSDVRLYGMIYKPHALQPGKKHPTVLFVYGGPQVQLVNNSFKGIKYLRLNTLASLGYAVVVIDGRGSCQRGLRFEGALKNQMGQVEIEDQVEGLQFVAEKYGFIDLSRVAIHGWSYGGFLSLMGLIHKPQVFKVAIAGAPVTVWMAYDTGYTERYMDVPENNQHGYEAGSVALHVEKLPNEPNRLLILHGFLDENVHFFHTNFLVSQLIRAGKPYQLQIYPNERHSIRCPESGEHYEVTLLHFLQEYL

Chain of recombinant human DPPIV (P27487 whole entry): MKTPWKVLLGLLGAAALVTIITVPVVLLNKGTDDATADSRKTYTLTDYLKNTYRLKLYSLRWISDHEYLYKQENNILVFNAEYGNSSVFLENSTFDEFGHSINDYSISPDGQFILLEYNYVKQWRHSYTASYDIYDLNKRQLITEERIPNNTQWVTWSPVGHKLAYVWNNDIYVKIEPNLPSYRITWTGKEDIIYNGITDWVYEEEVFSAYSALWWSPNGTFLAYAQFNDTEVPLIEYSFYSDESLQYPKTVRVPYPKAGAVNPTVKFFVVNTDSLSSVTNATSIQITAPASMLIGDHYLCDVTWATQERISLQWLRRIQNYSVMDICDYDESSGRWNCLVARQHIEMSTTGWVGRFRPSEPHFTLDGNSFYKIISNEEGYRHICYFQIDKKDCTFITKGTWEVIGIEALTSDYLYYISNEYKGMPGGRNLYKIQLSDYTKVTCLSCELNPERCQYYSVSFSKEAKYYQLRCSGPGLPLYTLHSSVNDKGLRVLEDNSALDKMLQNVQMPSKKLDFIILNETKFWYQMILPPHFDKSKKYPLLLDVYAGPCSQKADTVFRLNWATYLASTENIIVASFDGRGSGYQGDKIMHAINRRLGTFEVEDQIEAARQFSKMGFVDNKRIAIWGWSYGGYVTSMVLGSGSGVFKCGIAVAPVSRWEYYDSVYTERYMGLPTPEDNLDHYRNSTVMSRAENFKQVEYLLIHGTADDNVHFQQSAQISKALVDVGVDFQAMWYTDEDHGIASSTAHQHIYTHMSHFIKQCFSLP
Chain of recombinant human PREP (P48147 whole entry): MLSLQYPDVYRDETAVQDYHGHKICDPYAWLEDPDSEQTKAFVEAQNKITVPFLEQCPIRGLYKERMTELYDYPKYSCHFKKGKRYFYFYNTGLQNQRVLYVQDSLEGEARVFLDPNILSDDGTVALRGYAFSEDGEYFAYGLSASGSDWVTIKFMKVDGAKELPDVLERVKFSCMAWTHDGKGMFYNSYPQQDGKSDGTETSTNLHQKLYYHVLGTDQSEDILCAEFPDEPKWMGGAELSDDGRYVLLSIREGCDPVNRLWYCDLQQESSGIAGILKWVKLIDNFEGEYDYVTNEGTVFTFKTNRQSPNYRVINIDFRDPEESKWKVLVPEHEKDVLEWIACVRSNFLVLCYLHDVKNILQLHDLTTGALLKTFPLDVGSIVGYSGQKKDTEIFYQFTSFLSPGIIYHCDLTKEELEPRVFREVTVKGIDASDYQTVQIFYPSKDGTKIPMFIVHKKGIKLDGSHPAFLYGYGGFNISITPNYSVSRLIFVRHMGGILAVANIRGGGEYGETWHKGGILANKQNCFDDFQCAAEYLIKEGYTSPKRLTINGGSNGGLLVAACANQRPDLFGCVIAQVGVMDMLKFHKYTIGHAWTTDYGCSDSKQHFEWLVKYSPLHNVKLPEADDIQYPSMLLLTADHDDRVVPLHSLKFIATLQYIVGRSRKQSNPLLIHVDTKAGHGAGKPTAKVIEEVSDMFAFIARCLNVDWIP
Chain of recombinant human FAP (Q12884 whole entry): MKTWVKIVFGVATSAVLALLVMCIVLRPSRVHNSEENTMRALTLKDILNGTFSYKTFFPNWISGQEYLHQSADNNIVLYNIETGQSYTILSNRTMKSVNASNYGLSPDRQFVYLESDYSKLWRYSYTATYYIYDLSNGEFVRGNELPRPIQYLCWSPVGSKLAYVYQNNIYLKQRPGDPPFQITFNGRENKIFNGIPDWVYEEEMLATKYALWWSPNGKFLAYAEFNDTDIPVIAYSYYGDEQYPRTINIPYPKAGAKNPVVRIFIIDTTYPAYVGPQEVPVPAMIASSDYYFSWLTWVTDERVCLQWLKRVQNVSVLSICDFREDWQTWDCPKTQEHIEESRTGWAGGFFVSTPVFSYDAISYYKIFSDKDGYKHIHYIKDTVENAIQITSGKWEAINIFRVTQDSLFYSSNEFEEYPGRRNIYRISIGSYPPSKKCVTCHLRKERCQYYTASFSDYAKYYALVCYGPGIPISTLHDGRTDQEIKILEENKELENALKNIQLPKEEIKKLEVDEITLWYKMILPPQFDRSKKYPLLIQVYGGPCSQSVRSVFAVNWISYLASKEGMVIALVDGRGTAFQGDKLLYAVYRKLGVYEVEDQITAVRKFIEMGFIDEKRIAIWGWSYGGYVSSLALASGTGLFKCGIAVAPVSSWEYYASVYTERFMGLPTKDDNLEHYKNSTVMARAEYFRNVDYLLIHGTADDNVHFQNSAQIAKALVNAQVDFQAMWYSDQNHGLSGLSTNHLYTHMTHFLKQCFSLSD
Chain of recombinant human DPP8 (Q6V1X1 whole entry): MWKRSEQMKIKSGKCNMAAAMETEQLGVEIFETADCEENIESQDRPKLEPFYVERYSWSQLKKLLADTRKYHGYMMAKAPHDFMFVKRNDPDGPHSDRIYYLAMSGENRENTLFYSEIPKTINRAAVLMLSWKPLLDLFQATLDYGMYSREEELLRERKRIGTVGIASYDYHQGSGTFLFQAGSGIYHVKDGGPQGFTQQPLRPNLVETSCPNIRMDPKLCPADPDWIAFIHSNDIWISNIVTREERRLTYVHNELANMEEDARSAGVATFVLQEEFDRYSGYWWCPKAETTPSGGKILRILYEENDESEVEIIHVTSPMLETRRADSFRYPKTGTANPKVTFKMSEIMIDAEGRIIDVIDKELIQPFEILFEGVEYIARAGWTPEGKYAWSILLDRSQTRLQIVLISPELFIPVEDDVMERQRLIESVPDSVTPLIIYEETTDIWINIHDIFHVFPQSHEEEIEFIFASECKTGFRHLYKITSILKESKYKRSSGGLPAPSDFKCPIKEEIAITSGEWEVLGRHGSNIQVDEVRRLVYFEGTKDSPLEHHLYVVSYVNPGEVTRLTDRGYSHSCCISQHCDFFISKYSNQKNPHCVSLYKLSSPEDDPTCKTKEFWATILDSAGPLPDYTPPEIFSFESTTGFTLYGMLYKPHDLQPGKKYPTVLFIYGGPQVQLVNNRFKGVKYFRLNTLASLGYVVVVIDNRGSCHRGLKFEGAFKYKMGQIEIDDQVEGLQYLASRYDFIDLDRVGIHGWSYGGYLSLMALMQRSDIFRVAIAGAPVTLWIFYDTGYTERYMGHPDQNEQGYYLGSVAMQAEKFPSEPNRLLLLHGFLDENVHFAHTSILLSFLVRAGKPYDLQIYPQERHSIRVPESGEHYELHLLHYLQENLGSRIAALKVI

Row | SMILES | IC50 (recombinant human PREP) | IC50 (recombinant human DPPII) | IC50 (recombinant human DPPIV) | IC50 (recombinant human FAP) | also measured
1 | CC[C@@H](C)[C@H](N)C(=O)N1Cc2ccccc2[C@H]1B(O)O [1049 C] | > 100 µM | 0.095 µM |  |  | 
2 | CC(C)[C@@H](C(=O)N1CCC[C@H]1B(O)O)N(C)C [2504 C] |  | 10 µM |  |  | 
3 | N[C@H](C(=O)N1Cc2ccccc2C1)C1CCCCC1 [3360 C] |  |  | 1.38 µM |  | 
4 | CC(C)[C@H](N)C(=O)N1C[C@@H](O)C[C@H]1B(O)O [4312 S] |  | 0.61 µM | 0.009 µM |  | 
5 | Cc1ccc(-c2cc(C(F)(F)F)nn2-c2ccc(S(N)(=O)=O)cc2)cc1 [celecoxib] |  |  |  |  | tumor growth rates compared to control (vehicle) ([1]; celecoxib alone, various concentrations, MB49 tumor bearing mice): no observed differences in tumor growth rates compared to control
6 | C[C@H](N)C(=O)N1CCC[C@H]1B(O)O [compound 1129] |  | 0.0014 µM and 0.001 µM |  |  | 
7 | O=C([C@@H]1CCCN1)N1CCC[C@H]1B(O)O [compound 1181] |  | 0.054 µM | 0.0013 µM |  | 
8 | N[C@@H](Cc1ccccc1)C(=O)N1CCC[C@H]1B(O)O [compound 1336] |  |  | 0.002 µM |  | 
9 | CC(C)C[C@H](N)C(=O)N1CCC[C@H]1B(O)O [compound 1454] |  | 0.001 µM | 0.0016 µM | 0.15 µM | 
10 | NCCCC[C@H](N)C(=O)N1CCC[C@H]1B(O)O [compound 1700] |  |  | 0.0013 µM |  | 
11 | CC(C)[C@H](N)C(=O)N1CCC[C@H]1B(O)O [compound 2054, Valine-boroProline] |  |  |  |  | tumor regression in combination with celecoxib ([1]; 20 microgram dose of Val-boroPro, individual animal curves): facilitated the achievement of tumor regression; antitumor activity in combination with celecoxib ([1]; MB49 tumor bearing mice, Val-boroPro + celecoxib): increased the antitumor activity of Val-boroPro markedly (statistically significantly) and in a dose-dependent manner; efficacy in phase II trials ([2]; in combination with standard cytotoxic chemotherapy): did not meet the endpoints for efficacy; partial response ([2]; phase I, talabostat and rituximab, rituximab-resistant lymphoma): 3 patients; patients with improvement in grade 3 neutropenia ([2]; phase I, thirteen patients, concomitant immunosuppressive chemotherapy): five
12 | CC[C@H](N)C(=O)N1CCC[C@H]1B(O)O [compound 5466] |  | 0.0029 µM |  |  | 
13 | NC1(C(=O)N2Cc3ccc(F)cc3C2)CCNCC1 [compound 5552] |  | > 100 µM |  | 41.1 µM | IC50 (recombinant human DPP9): > 100 µM; IC50 (recombinant human DPP8): > 100 µM
14 | NC1(C(=O)N2Cc3ccccc3C2)CCNCC1 [compound 5553] |  | 0.978 µM | > 100 µM | > 100 µM | IC50 (recombinant human DPP8): > 100 µM
15 | CC(C)(C)[C@H](N)C(=O)N1CCC[C@H]1C#N [compound 9987] | > 100 µM | > 100 µM |  |  | 

Further lines, with some results ahead:

Row | IC50 (recombinant human PREP) | IC50 (recombinant human DPPII) | IC50 (recombinant human DPPIV) | IC50 (recombinant human FAP) | SMILES | also measured
16 |  | 0.0021 µM | 0.0012 µM |  | N[C@H](C(=O)N1CCC[C@H]1B(O)O)C1CCCCC1 [compound 1797] | 
17 |  |  |  | 0.13 µM | C[C@H](N)C(=S)N1CCC[C@H]1B(O)O [compound 2243] | 
18 |  | 1.7 µM |  | 11 µM | CN(CB(O)O)C(=O)[C@@H](N)CCC(=O)O [compound 2408] | 
19 |  | 6.4 µM | 0.002 µM |  | CC(C)[C@H](N)C(=O)N1C[C@H](O)C[C@H]1B(O)O [compound 4312] | 
20 |  | 0.0078 µM | 0.0012 µM |  | CC[C@H](C)[C@H](N)C(=O)N1CCC[C@H]1B(O)O [compound 4316] | 
21 |  | 0.012 µM | 0.002 µM |  | CC[C@@H](C)[C@H](N)C(=O)N1CCC[C@H]1B(O)O [compound 4317] | 
22 | > 100 µM |  |  | > 100 µM | CC[C@@H](C)C(N)C(=O)N1Cc2ccc(F)cc2C1 (some centres unmarked) [compound 5291, reference compound] | 
23 | > 100 µM | 4.18 µM | 0.0045 µM | > 100 µM | CC(C)[C@H](N)C(=O)N1CCC[C@H]1C(=O)CO [compound 5298] | 
24 | > 100 µM | 63.8 µM | > 100 µM | > 100 µM | N[C@H](C(=O)N1Cc2ccc(F)cc2C1)C1CCCCC1 [compound 5311] | IC50 (recombinant human DPP8): 81 µM
25 | > 100 µM | 92.2 µM | > 100 µM | > 100 µM | NC(=O)C[C@H](N)C(=O)N1Cc2ccc(F)cc2C1 [compound 5316] | IC50 (recombinant human DPP8): 4.11 µM
26 | > 100 µM | 22.1 µM | 54.8 µM | > 100 µM | CN(C)C(=O)C[C@H](N)C(=O)N1Cc2ccc(F)cc2C1 [compound 5317] | 
27 | > 100 µM | 44.9 µM |  | > 100 µM | CC(C)[C@H](N)C(=O)N1Cc2ccc(F)cc2C1 [compound 5321] | 
28 | > 100 µM | 36.8 µM |  | > 100 µM | CC(C)(C)[C@H](N)C(=O)N1Cc2ccc(F)cc2C1 [compound 5322] | 
29 | > 100 µM | > 100 µM | 60.3 µM | > 100 µM | O=C([C@@H]1CCCCN1)N1Cc2ccc(F)cc2C1 [compound 5323] | IC50 (recombinant human DPP9): 0.305 µM; IC50 (recombinant human DPP8): 0.862 µM
30 | > 100 µM | 0.842 µM | > 100 µM | > 100 µM | NCCCC[C@H](N)C(=O)N1Cc2ccc(F)cc2C1 [compound 5325] | IC50 (recombinant human DPP8): 0.123 µM
31 |  | 26.5 µM |  | > 100 µM | N[C@H](C(=O)N1Cc2ccc(F)cc2C1)C1CCCC1 [compound 5333] | 
32 | 25.1 µM | 36.5 µM | > 100 µM | > 100 µM | NC1(C(=O)N2CCSC2)CCNCC1 [compound 5554] | IC50 (recombinant human DPP9): > 100 µM; IC50 (recombinant human DPP8): > 100 µM
33 |  | 0.012 µM | 0.0011 µM |  | N[C@@H](CCC(=O)O)C(=O)N1CCC[C@H]1B(O)O [compound 8120] | 
